#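 Each compound was tested at five concentrations against cells in 96-well plates for 48 hours. TGI: total growth inhibition.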
# Tested on: K-562 leukemia
# Assay: NCI tumour cell line growth inhibition, 48 h
row,SMILES,TGI
1,CCCCCOc1ccc(C=Nc2ccc(-c3ccc(N=Cc4ccc(OCCCCC)cc4)c(OC)c3)cc2OC)cc1,> 31.6 µM
2,Nc1nc2[nH]c(=O)cnc2c(=O)[nH]1,> 125 µM
3,O=[N+]([O-])c1ccc2[nH]c3c(-c4ccccc4)nccc3c2c1,> 100 µM

# Tested on: UACC-257 melanoma
# Assay: NCI tumour cell line growth inhibition, 48 h
row,SMILES,TGI
1,CCCCCOc1ccc(C=Nc2ccc(-c3ccc(N=Cc4ccc(OCCCCC)cc4)c(OC)c3)cc2OC)cc1,> 100 µM
2,CN(C)CCN=C1c2ccccc2-c2c(=O)n(CCN(C)C)c(O)c3cccc1c23,1.25 µM
3,Nc1nc2[nH]c(=O)cnc2c(=O)[nH]1,> 125 µM
4,O=[N+]([O-])c1ccc2[nH]c3c(-c4ccccc4)nccc3c2c1,89.4 µM

# Tested on: NCI-H23 lung
# Assay: NCI tumour cell line growth inhibition, 48 h
row,SMILES,TGI
1,CCCCCOc1ccc(C=Nc2ccc(-c3ccc(N=Cc4ccc(OCCCCC)cc4)c(OC)c3)cc2OC)cc1,> 100 µM
2,CN(C)CCN=C1c2ccccc2-c2c(=O)n(CCN(C)C)c(O)c3cccc1c23,0.258 µM
3,Nc1nc2[nH]c(=O)cnc2c(=O)[nH]1,> 125 µM
4,O=[N+]([O-])c1ccc2[nH]c3c(-c4ccccc4)nccc3c2c1,> 100 µM

# Tested on: LOX IMVI melanoma
# Assay: NCI tumour cell line growth inhibition, 48 h
row,SMILES,TGI
1,CCCCCOc1ccc(C=Nc2ccc(-c3ccc(N=Cc4ccc(OCCCCC)cc4)c(OC)c3)cc2OC)cc1,> 100 µM
2,CN(C)CCN=C1c2ccccc2-c2c(=O)n(CCN(C)C)c(O)c3cccc1c23,0.185 µM
3,Nc1nc2[nH]c(=O)cnc2c(=O)[nH]1,> 125 µM
4,O=[N+]([O-])c1ccc2[nH]c3c(-c4ccccc4)nccc3c2c1,> 100 µM

# Tested on: SK-MEL-2 melanoma
# Assay: NCI tumour cell line growth inhibition, 48 h
row,SMILES,TGI
1,CCCCCOc1ccc(C=Nc2ccc(-c3ccc(N=Cc4ccc(OCCCCC)cc4)c(OC)c3)cc2OC)cc1,> 100 µM
2,CN(C)CCN=C1c2ccccc2-c2c(=O)n(CCN(C)C)c(O)c3cccc1c23,0.857 µM
3,Nc1nc2[nH]c(=O)cnc2c(=O)[nH]1,> 125 µM
4,O=[N+]([O-])c1ccc2[nH]c3c(-c4ccccc4)nccc3c2c1,76.6 µM

# Tested on: NCI/ADR-RES ovarian
# Assay: NCI tumour cell line growth inhibition, 48 h
row,SMILES,TGI
1,CCCCCOc1ccc(C=Nc2ccc(-c3ccc(N=Cc4ccc(OCCCCC)cc4)c(OC)c3)cc2OC)cc1,> 100 µM
2,CN(C)CCN=C1c2ccccc2-c2c(=O)n(CCN(C)C)c(O)c3cccc1c23,0.289 µM
3,Nc1nc2[nH]c(=O)cnc2c(=O)[nH]1,> 125 µM
4,O=[N+]([O-])c1ccc2[nH]c3c(-c4ccccc4)nccc3c2c1,> 65.1 µM

# Tested on: SNB-75 CNS
# Assay: NCI tumour cell line growth inhibition, 48 h
row,SMILES,TGI
1,CCCCCOc1ccc(C=Nc2ccc(-c3ccc(N=Cc4ccc(OCCCCC)cc4)c(OC)c3)cc2OC)cc1,> 100 µM
2,CN(C)CCN=C1c2ccccc2-c2c(=O)n(CCN(C)C)c(O)c3cccc1c23,0.487 µM
3,Nc1nc2[nH]c(=O)cnc2c(=O)[nH]1,> 125 µM
4,O=[N+]([O-])c1ccc2[nH]c3c(-c4ccccc4)nccc3c2c1,38.3 µM

# Tested on: IGROV1 ovarian
# Assay: NCI tumour cell line growth inhibition, 48 h
row,SMILES,TGI
1,CCCCCOc1ccc(C=Nc2ccc(-c3ccc(N=Cc4ccc(OCCCCC)cc4)c(OC)c3)cc2OC)cc1,> 100 µM
2,CN(C)CCN=C1c2ccccc2-c2c(=O)n(CCN(C)C)c(O)c3cccc1c23,0.616 µM
3,Nc1nc2[nH]c(=O)cnc2c(=O)[nH]1,> 125 µM
4,O=[N+]([O-])c1ccc2[nH]c3c(-c4ccccc4)nccc3c2c1,48.6 µM

# Tested on: CCRF-CEM leukemia
# Assay: NCI tumour cell line growth inhibition, 48 h
row,SMILES,TGI
1,CCCCCOc1ccc(C=Nc2ccc(-c3ccc(N=Cc4ccc(OCCCCC)cc4)c(OC)c3)cc2OC)cc1,> 100 µM
2,CN(C)CCN=C1c2ccccc2-c2c(=O)n(CCN(C)C)c(O)c3cccc1c23,10.5 µM
3,Nc1nc2[nH]c(=O)cnc2c(=O)[nH]1,> 125 µM
4,O=[N+]([O-])c1ccc2[nH]c3c(-c4ccccc4)nccc3c2c1,62.7 µM

# Tested on: DMS 273 small cell lung
# Assay: NCI tumour cell line growth inhibition, 48 h
row,SMILES,TGI
1,CCCCCOc1ccc(C=Nc2ccc(-c3ccc(N=Cc4ccc(OCCCCC)cc4)c(OC)c3)cc2OC)cc1,> 100 µM
2,CN(C)CCN=C1c2ccccc2-c2c(=O)n(CCN(C)C)c(O)c3cccc1c23,0.508 µM
3,Nc1nc2[nH]c(=O)cnc2c(=O)[nH]1,> 125 µM
4,O=[N+]([O-])c1ccc2[nH]c3c(-c4ccccc4)nccc3c2c1,18.1 µM

# Tested on: P388/ADR leukemia
# Assay: NCI tumour cell line growth inhibition, 48 h
row,SMILES,TGI
1,Nc1nc2[nH]c(=O)cnc2c(=O)[nH]1,> 125 µM
2,O=[N+]([O-])c1ccc2[nH]c3c(-c4ccccc4)nccc3c2c1,31.4 µM

# Tested on: NCI-H226 lung
# Assay: NCI tumour cell line growth inhibition, 48 h
row,SMILES,TGI
1,CCCCCOc1ccc(C=Nc2ccc(-c3ccc(N=Cc4ccc(OCCCCC)cc4)c(OC)c3)cc2OC)cc1,> 100 µM
2,CN(C)CCN=C1c2ccccc2-c2c(=O)n(CCN(C)C)c(O)c3cccc1c23,3.35 µM
3,Nc1nc2[nH]c(=O)cnc2c(=O)[nH]1,> 125 µM
4,O=[N+]([O-])c1ccc2[nH]c3c(-c4ccccc4)nccc3c2c1,50.5 µM

# Tested on: EKVX NSCLC
# Assay: NCI tumour cell line growth inhibition, 48 h
row,SMILES,TGI
1,CCCCCOc1ccc(C=Nc2ccc(-c3ccc(N=Cc4ccc(OCCCCC)cc4)c(OC)c3)cc2OC)cc1,> 100 µM
2,CN(C)CCN=C1c2ccccc2-c2c(=O)n(CCN(C)C)c(O)c3cccc1c23,0.987 µM
3,Nc1nc2[nH]c(=O)cnc2c(=O)[nH]1,> 125 µM
4,O=[N+]([O-])c1ccc2[nH]c3c(-c4ccccc4)nccc3c2c1,> 79.3 µM

# Tested on: HOP-92 NSCLC
# Assay: NCI tumour cell line growth inhibition, 48 h
row,SMILES,TGI
1,CCCCCOc1ccc(C=Nc2ccc(-c3ccc(N=Cc4ccc(OCCCCC)cc4)c(OC)c3)cc2OC)cc1,> 100 µM
2,CN(C)CCN=C1c2ccccc2-c2c(=O)n(CCN(C)C)c(O)c3cccc1c23,0.563 µM
3,Nc1nc2[nH]c(=O)cnc2c(=O)[nH]1,> 125 µM
4,O=[N+]([O-])c1ccc2[nH]c3c(-c4ccccc4)nccc3c2c1,65.9 µM

# Tested on: NCI-H460 lung
# Assay: NCI tumour cell line growth inhibition, 48 h
row,SMILES,TGI
1,CCCCCOc1ccc(C=Nc2ccc(-c3ccc(N=Cc4ccc(OCCCCC)cc4)c(OC)c3)cc2OC)cc1,> 100 µM
2,CN(C)CCN=C1c2ccccc2-c2c(=O)n(CCN(C)C)c(O)c3cccc1c23,0.339 µM

# Source: PubChem BioAssay (NCI)
